Laboratory results published in patent US12458021B2, “Microbiocidal derivatives” (SYNGENTA CROP PROTECTION AG, priority 2019, dated 2025).

Columns and labels:
Alternaria solani = Alternaria solani / tomato / leaf disc (early blight); assay type: in vivo; conditions: foliar, tomato leaf disks cv. Baby, inoculated 2 days after application, assessed 5-7 days after application, read-out: control of Alternaria solani (percent disease control compared to untreated)
Experimental: Example B1: Alternaria solani/Tomato/Leaf Disc (Early Blight) Tomato leaf disks cv. Baby are placed on agar in multiwell plates (24-well format) and sprayed with the formulated test compound diluted in water. The leaf disks are inoculated with a spore suspension of the fungus 2 days after application. The inoculated leaf disks are incubated at 23° C./21° C. […] […]-185.

[1] = test system: Glomerella lagenarium (Colletotrichum lagenarium); experiment: Glomerella lagenarium (Colletotrichum lagenarium) / liquid culture (anthracnose); assay type: cell-based; conditions: Colletotrichum orbiculare, PDB potato dextrose broth, 24° C., 3-4 days after application, read-out: control of Glomerella lagenarium (inhibition of growth, photometric)
Method in brief: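 Fungal growth inhibition measured photometrically 3-4 days post-application at 24° C. Spores were mixed directly into potato dextrose broth and dispensed onto test compound supplied in DMSO.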

[2] = test system: Blumeria graminis f. sp. tritici (Erysiphe graminis f. sp. tritici); experiment: Blumeria graminis f. sp. tritici / wheat / leaf disc preventative (powdery mildew on wheat); assay type: in vivo; conditions: foliar, wheat leaf segments cv. Kanzler, inoculated 1 day after application, assessed 6-8 days after application, read-out: control of Blumeria graminis f. sp. tritici (percent disease control compared to untreated)
Text: Example B4: Blumeria graminis f. sp. tritici (Erysiphe graminis f. sp. tritici)/Wheat/Leaf Disc Preventative (Powdery Mildew on Wheat) Wheat leaf segments cv. Kanzler are placed on agar in a multiwell plate (24-well format) and sprayed with the formulated test compound diluted in water. The leaf disks are inoculated by shaking powdery mildew infected plants above the test plates 1 day after application. […] […]-192.

[3] = test system: Phaeosphaeria nodorum (Septoria nodorum); experiment: Phaeosphaeria nodorum (Septoria nodorum) / wheat / leaf disc preventative (glume blotch); assay type: in vivo; conditions: Parastagonospora nodorum, foliar, wheat leaf segments cv. Kanzler, inoculated 2 days after application, assessed 5-7 days after application, read-out: control of Phaeosphaeria nodorum (percent disease control compared to untreated)
Method in brief: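 Wheat cv. Kanzler leaf discs on agar were sprayed with formulated compound diluted in water and inoculated with spores 2 days later. Discs were kept at 20° C, 75% rh, 12 h light/dark; percent disease control versus untreated was scored 5-7 days after application.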

[4] = test system: Monographella nivalis (Microdochium nivale); experiment: Monographella nivalis (Microdochium nivale) / liquid culture (foot rot cereals); assay type: cell-based; conditions: PDB potato dextrose broth, 24° C., 4-5 days after application, read-out: control of Monographella nivalis (inhibition of growth, photometric)
Method in brief: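 Growth inhibition measured by photometry 4-5 days post-application at 24° C. Compound was dispensed as DMSO solution, then PDB broth containing conidia from cryogenic storage was added.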

[5] = test system: Puccinia recondita f. sp. tritici; experiment: Puccinia recondita f. sp. tritici / wheat / leaf disc curative (brown rust); assay type: in vivo; conditions: foliar, wheat leaf segments cv. Kanzler, compound applied 1 day after inoculation, assessed 6-8 days after application, read-out: control of Puccinia recondita f. sp. tritici, curative (percent disease control compared to untreated)
Experimental: Example B10: Puccinia recondita f. sp. tritici/Wheat/Leaf Disc Curative (Brown Rust) Wheat leaf segments cv. Kanzler are placed on agar in multiwell plates (24-well format). The leaf segments are inoculated with a spore suspension of the fungus. Plates are stored in darkness at 19° C. and 75% rh. The formulated test compound diluted in water is applied 1 day after inoculation. […] […]-185.

[6] = test system: Puccinia recondita f. sp. tritici; experiment: Puccinia recondita f. sp. tritici / wheat / leaf disc preventative (brown rust); assay type: in vivo; conditions: foliar, wheat leaf segments cv. Kanzler, inoculated 1 day after application, assessed 7-9 days after application, read-out: control of Puccinia recondita f. sp. tritici, preventative (percent disease control compared to untreated)
Method in brief: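 Wheat leaf segments (cv. Kanzler) on agar were sprayed with formulated compound, then inoculated with spores 1 day later. Segments were incubated at 19 °C, 75% rh with 12 h light/dark. Percent disease control versus untreated was scored 7–9 days after application.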

[7] = test system: Magnaporthe grisea (Pyricularia oryzae); experiment: whole plant or invertebrate; assay type: in vivo; conditions: foliar, read-out: control of Magnaporthe grisea (percent disease control compared to untreated)
Pyrenophora teres = Pyrenophora teres / barley / leaf disc preventative (net blotch); assay type: in vivo; conditions: foliar, barley leaf segments cv. Hasso, inoculated 2 days after application, assessed 5-7 days after application, read-out: control of Pyrenophora teres (disease control compared to untreated)
Method in brief: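 Barley cv. Hasso leaf discs on agar were sprayed with diluted formulated compound, then inoculated with spore suspension 2 days later. Incubation at 20 °C, 65% rh, 12 h light/dark; disease control versus untreated assessed 5-7 days after application.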

Sclerotinia sclerotiorum = Sclerotinia sclerotiorum / liquid culture (cottony rot); assay type: cell-based; conditions: PDB potato dextrose broth, mycelia fragments, 24° C., 3-4 days after application, read-out: control of Sclerotinia sclerotiorum (inhibition of growth, photometric)
Experimental: Example B14: Sclerotinia sclerotiorum/Liquid Culture (Cottony Rot) Mycelia fragments of a newly grown liquid culture of the fungus are directly mixed into nutrient broth (PDB potato dextrose broth). After placing a (DMSO) solution of test compound into a microtiter plate (96-well format) the nutrient broth containing the fungal material is added. The test plates are incubated at 24° C. and the inhibition of growth is determined photometrically 3-4 days after application.

[8] = test system: Mycosphaerella graminicola (Septoria tritici); experiment: Mycosphaerella graminicola (Septoria tritici) / liquid culture (Septoria blotch); assay type: cell-based; conditions: Zymoseptoria tritici, PDB potato dextrose broth, 24° C., 4-5 days after application, read-out: control of Mycosphaerella graminicola (inhibition of growth, photometric)
Method in brief: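 Fungal growth inhibition was read photometrically 4-5 days after application. Compound was dosed from a DMSO solution into liquid cultures of spores in potato dextrose broth, incubated at 24° C.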

[9] = test system: Botryotinia fuckeliana (Botrytis cinerea); experiment: Botryotinia fuckeliana (Botrytis cinerea) / liquid culture (gray mould); assay type: cell-based; conditions: Vogels broth, 24° C., 3-4 days after application, read-out: control of Botryotinia fuckeliana (inhibition of growth, photometric)
Method in brief: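 Botrytis cinerea conidia in Vogels broth were added to compound supplied as DMSO solution. Plates were incubated at 24 °C, and growth inhibition was read photometrically 3-4 days after application.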

Fusarium culmorum = experiment: microbe, parasite or virus in culture; assay type: cell-based; conditions: read-out: control of Fusarium culmorum (inhibition of growth, photometric)
[10] = test system: Mycosphaerella arachidis (Cercospora arachidicola); experiment: Mycosphaerella arachidis (Cercospora arachidicola) / liquid culture (early leaf spot); assay type: cell-based; conditions: PDB potato dextrose broth, 24° C., 4-5 days after application, read-out: control of Mycosphaerella arachidis (inhibition of growth, photometric)
Method in brief: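 Conidia from cryogenic storage suspended in potato dextrose broth and added to compound in DMSO. Incubation at 24° C; growth inhibition read photometrically 4-5 days after application.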

COc1ccc(Nc2cc(F)nc(F)c2)nc1C(=O)NC1CCC1(C)C (centres unmarked) [Compound P-4, 6-[(2,6-difluoro-4-pyridyl)amino]-N-(2,2-dimethylcyclobutyl)-3-methoxy-pyridine-2-carboxamide]
≥ 80%: pest or weed control at 200 ppm (Alternaria solani) | inhibition at 20 ppm [1] | pest or weed control at 200 ppm [2] | pest or weed control at 200 ppm [3] | inhibition at 20 ppm [4] | pest or weed control at 200 ppm [5] | pest or weed control at 200 ppm [6] | pest or weed control at 200 ppm [7] | pest or weed control at 200 ppm (Pyrenophora teres) | inhibition at 20 ppm (Sclerotinia sclerotiorum) | inhibition at 20 ppm [8]

COc1ccc(Nc2cc(F)cc(F)c2)nc1C(=O)NC1CCC1(C)C (centres unmarked) [Compound P-7, 6-(3,5-difluoroanilino)-N-(2,2-dimethylcyclobutyl)-3-methoxy-pyridine-2-carboxamide]
≥ 80%: pest or weed control at 200 ppm (Alternaria solani) | inhibition at 20 ppm [9] | inhibition at 20 ppm [1] | pest or weed control at 200 ppm [2] | inhibition at 20 ppm (Fusarium culmorum) | pest or weed control at 200 ppm [3] | inhibition at 20 ppm [4] | inhibition at 20 ppm [10] | pest or weed control at 200 ppm [6] | pest or weed control at 200 ppm [7] | pest or weed control at 200 ppm (Pyrenophora teres) | inhibition at 20 ppm [8]

COc1ccc(Nc2cc(F)cc(F)c2)nc1C(=O)NC(C)(C)C [Compound P-93, N-tert-butyl-6-(3,5-difluoroanilino)-3-methoxy-pyridine-2-carboxamide]
≥ 80%: pest or weed control at 200 ppm (Alternaria solani) | inhibition at 20 ppm [9] | inhibition at 20 ppm [1] | pest or weed control at 200 ppm [2] | pest or weed control at 200 ppm [3] | inhibition at 20 ppm [4] | inhibition at 20 ppm [10] | pest or weed control at 200 ppm [5] | pest or weed control at 200 ppm [6] | pest or weed control at 200 ppm [7] | pest or weed control at 200 ppm (Pyrenophora teres) | inhibition at 20 ppm [8]

COc1ccc(Nc2cc(F)nc(F)c2)nc1C(=O)NC1(C)CCCC1 [Compound P-109, 6-[(2,6-difluoro-4-pyridyl)amino]-3-methoxy-N-(1-methylcyclopentyl)pyridine-2-carboxamide]
≥ 80%: pest or weed control at 200 ppm (Alternaria solani) | inhibition at 20 ppm [1] | pest or weed control at 200 ppm [2] | inhibition at 20 ppm [4] | pest or weed control at 200 ppm [5] | pest or weed control at 200 ppm [6] | pest or weed control at 200 ppm [7] | pest or weed control at 200 ppm (Pyrenophora teres) | inhibition at 20 ppm (Sclerotinia sclerotiorum) | inhibition at 20 ppm [8]

COc1ccc(Nc2cc(F)cc(F)c2)nc1C(=O)NC1(C)CCC1 [Compound P-118, 6-(3,5-difluoroanilino)-3-methoxy-N-(1-methylcyclobutyl)pyridine-2-carboxamide]
≥ 80%: pest or weed control at 200 ppm (Alternaria solani) | inhibition at 20 ppm [9] | inhibition at 20 ppm [1] | pest or weed control at 200 ppm [2] | pest or weed control at 200 ppm [3] | inhibition at 20 ppm [4] | inhibition at 20 ppm [10] | pest or weed control at 200 ppm [5] | pest or weed control at 200 ppm [6] | pest or weed control at 200 ppm [7] | pest or weed control at 200 ppm (Pyrenophora teres) | inhibition at 20 ppm [8]

COc1ccc(Nc2cccc(F)c2)nc1C(=O)NC(C)(C)C [Compound P-160, N-tert-butyl-6-(3-fluoroanilino)-3-methoxy-pyridine-2-carboxamide]
≥ 80%: pest or weed control at 200 ppm (Alternaria solani) | inhibition at 20 ppm [9] | inhibition at 20 ppm [1] | pest or weed control at 200 ppm [2] | pest or weed control at 200 ppm [3] | inhibition at 20 ppm [4] | inhibition at 20 ppm [10] | pest or weed control at 200 ppm [5] | pest or weed control at 200 ppm [6] | pest or weed control at 200 ppm [7] | pest or weed control at 200 ppm (Pyrenophora teres) | inhibition at 20 ppm (Sclerotinia sclerotiorum) | inhibition at 20 ppm [8]

COc1ccc(Nc2cc(F)c(F)c(F)c2)nc1C(=O)NC(C)(C)C [Compound P-162, N-tert-butyl-3-methoxy-6-(3,4,5-trifluoroanilino)pyridine-2-carboxamide]
≥ 80%: pest or weed control at 200 ppm (Alternaria solani) | inhibition at 20 ppm [9] | inhibition at 20 ppm [1] | pest or weed control at 200 ppm [2] | inhibition at 20 ppm [4] | inhibition at 20 ppm [10] | pest or weed control at 200 ppm [5] | pest or weed control at 200 ppm [6] | pest or weed control at 200 ppm [7] | pest or weed control at 200 ppm (Pyrenophora teres) | inhibition at 20 ppm (Sclerotinia sclerotiorum) | inhibition at 20 ppm [8]

COc1ccc(Nc2cc(F)cc(F)c2)nc1C(=O)NC(C)C(C)C (centres unmarked) [Compound P-168, 6-(3,5-difluoroanilino)-N-(1,2-dimethylpropyl)-3-methoxy-pyridine-2-carboxamide]
≥ 80%: inhibition at 20 ppm [9] | inhibition at 20 ppm [1] | pest or weed control at 200 ppm [2] | inhibition at 20 ppm (Fusarium culmorum) | inhibition at 20 ppm [4] | inhibition at 20 ppm [10] | pest or weed control at 200 ppm [6] | pest or weed control at 200 ppm (Pyrenophora teres) | inhibition at 20 ppm [8]

COc1ccc(Nc2cc(F)cc(F)c2)nc1C(=O)NC1(C2CCC2)CCC1 [Compound P-176, N-(1-cyclobutylcyclobutyl)-6-(3,5-difluoroanilino)-3-methoxy-pyridine-2-carboxamide]
≥ 80%: pest or weed control at 200 ppm (Alternaria solani) | inhibition at 20 ppm [9] | inhibition at 20 ppm [1] | pest or weed control at 200 ppm [2] | inhibition at 20 ppm (Fusarium culmorum) | pest or weed control at 200 ppm [3] | inhibition at 20 ppm [4] | inhibition at 20 ppm [10] | pest or weed control at 200 ppm [6] | pest or weed control at 200 ppm (Pyrenophora teres) | inhibition at 20 ppm [8]

COc1ccc(Nc2cc(F)cc(F)c2)nc1C(=O)NC1(C(C)C)CCC1 [Compound P-179, 6-(3,5-difluoroanilino)-N-(1-isopropylcyclobutyl)-3-methoxy-pyridine-2-carboxamide]
≥ 80%: pest or weed control at 200 ppm (Alternaria solani) | inhibition at 20 ppm [9] | inhibition at 20 ppm [1] | pest or weed control at 200 ppm [2] | inhibition at 20 ppm (Fusarium culmorum) | pest or weed control at 200 ppm [3] | inhibition at 20 ppm [4] | inhibition at 20 ppm [10] | pest or weed control at 200 ppm [6] | pest or weed control at 200 ppm (Pyrenophora teres) | inhibition at 20 ppm [8]
